Test system: DNA repair protein genes
Experiment: DNA chip mRNA expression in yeast, DNA repair protein genes (Table 3)
Type: cell-based, Saccharomyces cerevisiae S288C
Conditions: incubated two hours, concentrations as in the 1st table
In short: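 Measured as treated-to-untreated fluorescence ratio on a full-genome yeast DNA chip. Cells (S288C, YPD, 25° C.) were exposed in log phase for two hours to one chemical, dosed to curb growth without killing.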

Measured: The level of expressed mRNA in the presence of chemical substance/The level of expressed mRNA in the absence of chemical substance

O=[N+]([O-])c1cc[n+]([O-])c2ccccc12 [(5), 4-nitroquinolin-N-oxide]
0.5: yeast gene YEL037C
2.0: yeast gene YGR180C
1.6: yeast gene YPR025C
1.4: yeast gene YKL145W | yeast gene YNL312W
1.3: yeast gene YGL127C | yeast gene YGR231C | yeast gene YNL213C | yeast gene YOR005C | yeast gene YPL194W
0.7: yeast gene YDR054C | yeast gene YNL261W
0.9: yeast gene YEL019C | yeast gene YER162C | yeast gene YHR164C | yeast gene YIL036W
0.8: yeast gene YGL091C | yeast gene YIL143C | yeast gene YJR046W | yeast gene YMR035W | yeast gene YMR284W | yeast gene YNL250W | yeast gene YPL022W
1.0: yeast gene YBL019W | yeast gene YDR369C | yeast gene YFL014W | yeast gene YGL058W | yeast gene YIL153W | yeast gene YJR052W | yeast gene YLR103C | yeast gene YML032C | yeast gene YMR096W
1.5: yeast gene YAR007C | yeast gene YGL163C | yeast gene YGR258C | yeast gene YIL072W
1.2: yeast gene YBR073W | yeast gene YCR014C | yeast gene YDL017W | yeast gene YDL059C | yeast gene YIR002C | yeast gene YLR233C | yeast gene YOL043C | yeast gene YOR386W | yeast gene YPL164C
1.7: yeast gene YJL026W | yeast gene YLR288C | yeast gene YMR072W
1.1: yeast gene YAL015C | yeast gene YBR272C | yeast gene YDL200C | yeast gene YGL249W
0.6: yeast gene YML058W

Reference: US8192962B2, “Processes for detecting toxic substances” (Daikin Industries, Ltd., priority 2001, dated 2012)
